Literature values, collected in patent US20240316039A1, “METHOD OF REDUCING ELEVATED INTRAOCULAR PRESSURE” (SUN PHARMA ADVANCED RESEARCH COMPANY LIMITED, priority 2021, published 2024).
Where two headings read alike, the source gives them in different places.

System: ocular hypertensive eyes and normotensive eyes

## Brc1c(NC2=NCCN2)ccc2nccnc12 [Brimonidine]
In vivo
  duration of effect: less than 12 hours
  time of peak effect after instillation: ≤ 2 h
Normotensive eyes (less than 21 mm Hg)
  peak IOP reduction: 6-18%
Ocular hypertensive eyes
  peak IOP reduction: 20-25%
